# Laboratory results: PMC9867837 (Cancer letters, 2022)
# Like-named read-outs stand apart in the source and are kept apart here.
# Tests used:
# [1] = molecular target: T1, Stat1:Stat3 DNA-binding activity (Mus musculus, UniProt P42227); experiment: EMSA of Stat1:Stat3 DNA-binding activity in nuclear extracts of EGF-stimulated NIH3T3/hEGFR; assay type: biochemical; conditions: Fig. 1C, hSIE probe, 30 min
# T1 construct: endogenous in cells; host or cells: EGF-stimulated NIH3T3/hEGFR fibroblasts (nuclear extract)
# Protocol: Details are presented in Supplementary Information, “Methods”. […]
# min, prior to incubation with the radiolabeled probe for 30 min at 30 °C and subjecting to EMSA analysis.
# (§1) In another case, the nuclear extract was pre-incubated with the radiolabeled probe for 30 min at 30 °C prior to incubation with increasing concentration of H182 at room temperature for 30 min and subjecting to EMSA analysis. Bands corresponding to Stats DNA- binding activities were scanned and quantified using ImageJ and plotted as a percentage of control (vehicle) against the concentration of the inhibitor, from which the IC50 values were derived .
# [2] = molecular target: CYP3A (Homo sapiens, UniProt P08684); experiment: CYP inhibition, CYP3A; assay type: in vitro ADME
# Protocol: (§2) The in vivo activity of a compound is influenced by its overall bioavailability, which is also driven by parameters, such as solubility, permeability, and metabolism. […] These values are all above the industry cut-off of 60 μg/ml. […] It has CLint in human hepatocytes of 16 μL/min/10^6 cells, which falls into moderate stability range [43].
# [3] = Plasma stability, human; assay type: in vitro ADME
# Protocol: Solubility, human (HLM) and mouse liver microsomal (MLM), and plasma stability studies were performed by Eurofins Cerep Panlabs and Eurofin Discovery Services (www.eurofins.com/PharmaDiscovery), while protein binding studies were performed by Sanford Burnham Prebys Chemical Biology & Drug Discovery Core using standard protocols.
# [4] = molecular target: T2, wtpYStat3 (Homo sapiens, UniProt P40763); experiment: EMSA with purified wild-type pYStat3; assay type: biochemical; conditions: 3 μM H182, 30 min
# T2 construct: made in house; host or cells: E. coli BL21(DE3) TKB1 (inducible tyrosine kinase)
# Source text: This construct was used to generate the mutants, Stat3C328A, Stat3C426A, Stat3C468A, and Stat3C542S, as described in detail in Supplementary Information “Methods”.
# The expression of un-phosphorylated and tyrosine phosphorylated His-tagged recombinant wtStat3 and mutant Stat3 proteins in BL21 (DE3) bacterial cells is described in detail in Supplementary Information “Methods”.
# Given the MS data, we conducted site-directed mutagenesis analysis for the effects of Cys mutations (Cys-to-Ala or Cys-to-Ser mutations) on the inhibitory activities or potencies of the compounds. […]
# as §1, with “derived . […]” for “derived .”
# (§3) These studies were performed as previously reported using the v-Src -transformed NIH3T3/v-Src fibroblasts [1 -5] . […] Luciferase activity was normalized to total protein concentration of cell lysate, which was determined by Bradford assay (Bio-Rad, Hercules, CA) . […]
# [5] = molecular target: T3, CYP2C9 (Homo sapiens, UniProt P11712); experiment: CYP inhibition, CYP2C9; assay type: in vitro ADME; conditions: read-out: CYP Inhibition CYP2C9 % Inh at 10 μM
# T3 construct: Eurofins-CEREP (contract research organisation that ran the assay)
# Protocol: as §2
# [6] = molecular target: T4, hERG (Homo sapiens, UniProt Q12809); experiment: CEREP SafetyScreen44, hERG; assay type: binding; conditions: 10 μM H182
# T4 construct: Eurofins-CEREP (contract research organisation that ran the assay)
# Protocol: as §2
# [7] = tested on: Stat3-dependent luciferase reporter, pLucTKS3; experiment: Stat3-dependent luciferase reporter pLucTKS3 in NIH3T3/v-Src; assay type: cell-based, mouse; conditions: 1–3 μM H182 for 1 h
# Protocol: These studies were performed as previously reported using the v-Src-transformed NIH3T3/v-Src fibroblasts. Details are presented in Supplementary Information, “Methods”.
# We next evaluated the effects of the azetidine compound, H182 on Stat3 transcriptional activity. We used mouse fibroblasts transformed by the viral Src oncoprotein (NIH3T3/vSrc) that harbor constitutive Stat3 activation, which were transiently transfected with the Stat3-dependent luciferase reporter, pLucTKS3 [25, 30]. Transfected cells were treated with H182 and the luciferase activity was assayed in the cytosolic extract preparations of equal total protein [12, 13, 30]. […]
# as §1, with “derived . […]” for “derived .”
# as §3
# CYP3A, sequence (P08684 2-503): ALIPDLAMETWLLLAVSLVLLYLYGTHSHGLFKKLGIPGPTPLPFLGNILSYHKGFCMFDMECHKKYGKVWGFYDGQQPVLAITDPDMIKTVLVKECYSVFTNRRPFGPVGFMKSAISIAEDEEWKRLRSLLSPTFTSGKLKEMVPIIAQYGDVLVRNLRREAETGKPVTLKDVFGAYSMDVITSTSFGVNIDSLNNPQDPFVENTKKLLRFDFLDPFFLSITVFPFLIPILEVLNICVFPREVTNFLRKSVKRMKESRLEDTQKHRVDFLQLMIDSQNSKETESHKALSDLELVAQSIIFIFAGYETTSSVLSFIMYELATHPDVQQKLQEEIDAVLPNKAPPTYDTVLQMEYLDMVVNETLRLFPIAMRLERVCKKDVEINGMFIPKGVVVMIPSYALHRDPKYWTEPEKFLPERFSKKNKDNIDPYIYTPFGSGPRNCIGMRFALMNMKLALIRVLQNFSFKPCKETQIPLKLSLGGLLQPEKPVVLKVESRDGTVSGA
# T4 sequence (Q12809 whole entry): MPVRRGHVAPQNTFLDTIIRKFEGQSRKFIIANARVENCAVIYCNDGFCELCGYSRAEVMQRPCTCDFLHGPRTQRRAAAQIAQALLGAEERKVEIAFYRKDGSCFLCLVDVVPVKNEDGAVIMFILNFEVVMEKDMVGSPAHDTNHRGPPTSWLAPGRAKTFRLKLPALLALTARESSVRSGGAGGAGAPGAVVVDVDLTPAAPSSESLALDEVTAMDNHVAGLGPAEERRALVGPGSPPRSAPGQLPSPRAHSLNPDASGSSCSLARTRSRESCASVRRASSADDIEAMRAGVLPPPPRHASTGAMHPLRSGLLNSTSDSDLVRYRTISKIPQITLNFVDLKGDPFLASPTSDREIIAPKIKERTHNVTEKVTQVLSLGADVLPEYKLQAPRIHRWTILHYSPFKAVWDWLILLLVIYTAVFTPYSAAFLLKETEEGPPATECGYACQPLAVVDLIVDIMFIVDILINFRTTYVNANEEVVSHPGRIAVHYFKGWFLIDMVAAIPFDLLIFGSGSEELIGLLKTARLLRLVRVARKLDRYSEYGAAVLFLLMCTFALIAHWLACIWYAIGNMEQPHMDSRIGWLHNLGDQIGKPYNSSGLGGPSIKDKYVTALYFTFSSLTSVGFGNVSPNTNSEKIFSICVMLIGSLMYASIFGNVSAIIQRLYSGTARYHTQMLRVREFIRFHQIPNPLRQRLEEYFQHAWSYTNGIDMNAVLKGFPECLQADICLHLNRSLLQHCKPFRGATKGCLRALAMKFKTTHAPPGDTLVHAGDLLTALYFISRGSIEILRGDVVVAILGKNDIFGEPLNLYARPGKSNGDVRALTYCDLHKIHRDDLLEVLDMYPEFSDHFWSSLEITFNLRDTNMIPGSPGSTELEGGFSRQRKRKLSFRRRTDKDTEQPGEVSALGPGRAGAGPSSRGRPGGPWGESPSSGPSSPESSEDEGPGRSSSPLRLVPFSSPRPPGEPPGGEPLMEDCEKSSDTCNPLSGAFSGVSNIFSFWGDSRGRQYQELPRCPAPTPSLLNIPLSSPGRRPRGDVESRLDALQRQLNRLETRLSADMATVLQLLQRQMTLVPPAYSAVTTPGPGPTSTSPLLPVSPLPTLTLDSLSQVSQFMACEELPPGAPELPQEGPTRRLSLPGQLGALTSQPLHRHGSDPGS
# T1 sequence (P42227 2-770 limits assumed): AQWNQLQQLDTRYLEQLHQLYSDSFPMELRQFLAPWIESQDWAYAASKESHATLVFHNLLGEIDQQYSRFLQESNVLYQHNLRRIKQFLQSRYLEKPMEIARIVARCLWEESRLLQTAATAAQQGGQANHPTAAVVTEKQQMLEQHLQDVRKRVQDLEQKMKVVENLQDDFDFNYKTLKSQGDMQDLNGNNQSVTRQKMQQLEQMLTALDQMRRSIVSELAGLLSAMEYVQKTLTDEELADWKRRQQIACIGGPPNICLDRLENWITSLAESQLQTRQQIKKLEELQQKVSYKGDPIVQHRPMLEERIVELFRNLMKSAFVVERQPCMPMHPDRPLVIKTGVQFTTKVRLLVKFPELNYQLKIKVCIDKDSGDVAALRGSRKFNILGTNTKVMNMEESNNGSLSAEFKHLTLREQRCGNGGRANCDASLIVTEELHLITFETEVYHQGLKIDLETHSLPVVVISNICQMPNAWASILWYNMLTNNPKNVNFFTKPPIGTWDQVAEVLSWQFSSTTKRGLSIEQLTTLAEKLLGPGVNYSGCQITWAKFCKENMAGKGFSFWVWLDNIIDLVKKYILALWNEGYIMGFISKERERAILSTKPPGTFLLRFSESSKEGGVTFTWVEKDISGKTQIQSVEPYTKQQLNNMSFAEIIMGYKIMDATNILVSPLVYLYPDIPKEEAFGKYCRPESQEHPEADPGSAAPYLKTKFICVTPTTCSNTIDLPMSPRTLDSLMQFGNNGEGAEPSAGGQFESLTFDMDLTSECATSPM
# T1 sequence (P42225 2-749 partner limits assumed): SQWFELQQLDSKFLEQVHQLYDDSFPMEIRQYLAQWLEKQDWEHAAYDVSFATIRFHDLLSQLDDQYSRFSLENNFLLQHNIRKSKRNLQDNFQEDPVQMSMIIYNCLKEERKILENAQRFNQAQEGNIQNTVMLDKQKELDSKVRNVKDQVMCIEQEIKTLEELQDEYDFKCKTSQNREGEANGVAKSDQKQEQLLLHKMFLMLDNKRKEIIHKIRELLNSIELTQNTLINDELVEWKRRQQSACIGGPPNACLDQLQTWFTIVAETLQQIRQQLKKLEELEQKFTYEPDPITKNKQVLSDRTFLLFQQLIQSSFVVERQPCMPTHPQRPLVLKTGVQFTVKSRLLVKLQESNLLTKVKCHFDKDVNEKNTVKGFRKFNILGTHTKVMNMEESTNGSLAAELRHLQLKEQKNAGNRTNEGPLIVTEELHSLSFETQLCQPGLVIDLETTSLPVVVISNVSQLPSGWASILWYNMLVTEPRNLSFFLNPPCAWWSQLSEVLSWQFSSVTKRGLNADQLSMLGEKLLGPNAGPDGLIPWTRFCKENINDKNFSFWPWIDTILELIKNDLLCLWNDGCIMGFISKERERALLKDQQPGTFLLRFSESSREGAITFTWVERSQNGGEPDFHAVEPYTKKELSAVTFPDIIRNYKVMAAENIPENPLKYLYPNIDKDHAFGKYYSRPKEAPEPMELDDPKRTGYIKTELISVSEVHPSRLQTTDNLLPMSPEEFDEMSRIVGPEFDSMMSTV
# T2 sequence (P40763 127-711): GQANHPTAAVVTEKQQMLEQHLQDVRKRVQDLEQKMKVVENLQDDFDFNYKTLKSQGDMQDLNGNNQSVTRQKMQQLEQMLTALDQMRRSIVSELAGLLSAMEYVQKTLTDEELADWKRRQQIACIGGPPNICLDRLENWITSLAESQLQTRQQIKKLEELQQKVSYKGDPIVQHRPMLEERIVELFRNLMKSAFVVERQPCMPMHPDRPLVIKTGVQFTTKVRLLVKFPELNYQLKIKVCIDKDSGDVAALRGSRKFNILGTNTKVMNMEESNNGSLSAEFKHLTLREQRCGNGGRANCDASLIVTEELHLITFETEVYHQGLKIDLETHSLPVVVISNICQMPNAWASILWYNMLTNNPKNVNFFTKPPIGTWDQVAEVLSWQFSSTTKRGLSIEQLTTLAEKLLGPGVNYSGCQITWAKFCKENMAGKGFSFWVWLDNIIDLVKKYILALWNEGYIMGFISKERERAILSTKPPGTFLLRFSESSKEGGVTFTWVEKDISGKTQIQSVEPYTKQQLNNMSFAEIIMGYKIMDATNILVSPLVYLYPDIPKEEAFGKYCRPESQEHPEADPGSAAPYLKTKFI
# T3 sequence (P11712 whole entry, species assumed): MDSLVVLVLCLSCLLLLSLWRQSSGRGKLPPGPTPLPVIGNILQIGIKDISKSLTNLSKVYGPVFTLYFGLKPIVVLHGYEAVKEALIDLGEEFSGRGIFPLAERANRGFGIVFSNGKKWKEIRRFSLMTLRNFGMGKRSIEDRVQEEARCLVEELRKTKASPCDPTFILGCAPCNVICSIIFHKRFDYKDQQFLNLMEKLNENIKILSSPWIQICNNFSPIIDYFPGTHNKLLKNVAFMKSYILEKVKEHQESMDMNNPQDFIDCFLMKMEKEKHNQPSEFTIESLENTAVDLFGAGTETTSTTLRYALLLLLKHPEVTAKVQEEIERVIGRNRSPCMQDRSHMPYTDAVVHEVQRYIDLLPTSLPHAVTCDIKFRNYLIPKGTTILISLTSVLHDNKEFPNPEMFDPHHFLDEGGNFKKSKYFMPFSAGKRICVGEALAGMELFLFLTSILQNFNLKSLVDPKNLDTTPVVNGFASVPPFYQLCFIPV
compound,measurement,setting,value
O=C([C@H]1CCN1S(=O)(=O)c1c(F)c(F)c(F)c(F)c1F)N(Cc1ccc(C2CCCCC2)cn1)c1ccc2c(=O)[nH]ncc2c1 [Compound H182],IC50,[1],3.4 µM
same,IC50,"[2]; probe midazolam, midazolam site, read-out: CYP Inhibition CYP3A (Midazolam) IC50",6.9 µM
same,IC50,"[2]; probe testosterone, testosterone site, read-out: CYP Inhibition CYP3A (Testosterone) IC50",1.2 µM
same,remaining at 1 h,[3]; 1 h,53%
same,remaining at 2 h,[3]; 2 h,10%
same,Effect on DNA-binding activity of wtpYStat3,[4],strong inhibition
same,inhibition at 10 µM,[5],33%
same,inhibition at 10 µM,[6],> 80%
same,Effect on Stat3-driven luciferase reporter expression (pLucTKS3),[7],dose-dependent inhibition
